In patent publication EP0755938B1, “Ligated polyoxometalates and method for their synthesis” (THE B.F. GOODRICH COMPANY, priority 1995, dated 1997):

Tests used:
[1] = Solubility of the isolated product in organic solvents, as noted in the synthesis examples; format: physicochemical
[2] = Solubility test in hexane (Table 1); format: physicochemical
[3] = Catalytic activity test: gel time in polymerizing dicyclopentadiene under RIM conditions; conditions: 4°C temperature rise from the initial temperature of 40°C; A and B components mixed in adiabatic chamber; Component B 0.66 wt. percent polyoxometalate catalyst
Protocol: The ligated polyoxomolybdate produced in Examples 1-4 were tested for their activity in polymerizing dicyclopentadiene under conditions of a RIM procedure.
Reaction injection molding components were prepared with the following recipes: Component A contained 88.2 wt. percent dicyclopentadiene/7.17 wt. percent cyclopentadiene trimer/3.52 wt. percent butadiene elastomer/0.5 wt. percent diethylaluminumchloride/0.25 wt. percent 2,4-dimethyl-3-pentanol/0.09 wt. percent n-propyl alcohol/0.18 wt. percent silicon tetrachloride.
Component B contained 88.63 wt. percent dicyclopentadiene/7.19 wt. percent cyclopentadiene trimer 3.52 wt. percent butadiene elastomer/0.66 wt. percent polyoxometalate catalyst.
The A and B components were reactivity tested using two pistons and a static mixer. The A and B components were first drawn into their respective piston of the reactivity tester. The components were then heated to 40°C inside the pistons. Next, the contents of the A and B component pistons of the reactivity tester were emptied through a static mixer into a disposable adiabatic chamber.
The temperature increase during the polymerization in the adiabatic chamber was monitored. The gel time is defined as a 4°C temperature rise from the initial temperature of 40°C.

| Substance | soluble in cyclohexane [1] | soluble in dicyclopentadiene [1] | soluble in hexane [1] | further results |
| --- | --- | --- | --- | --- |
| [(C8H17)3NCH3]4{(C6H5P)2Mo5O21} [Example 5] | soluble | soluble |  | Hexane soluble ([2]; numeric bound): < 5% |
| [(C12H25)3NH4{(C6H5P)2Mo5O21} [Example 34] | soluble |  | soluble |  |
| [(C12H25)3NH]2{(C6H4O2)2MoO2} [Example 32] | soluble |  |  |  |
| [(C12H25)3NH]2{(H3NC6H4P)2Mo5O21} [Example 16] | soluble |  | soluble | Hexane soluble ([2]; result in words): soluble |
| [(C12H25)3NH]2{[(OOC)CH2CH(O)(COO)]2Mo4O12} [Example 30] | soluble |  | soluble |  |
| [(C12H25)3NH]2{[Br2C6H2(O)(COO)]2MoO2} [Example 29] | soluble |  | soluble |  |
| [(C12H25)3NH]2{[C6H4(O)(COO)]2Mo2O5} [Example 24] | soluble |  | soluble |  |
| [(C12H25)3NH]2{[C10H6(O)(COO)]2Mo2O5} [Example 27] | soluble |  | soluble |  |
| [(C12H25)3NH]2{[CH3C6H3(O)(COO)]2Mo2O5} [Example 28] | soluble |  | soluble |  |
| [(C12H25)3NH]2{[CH3CH(O)(COO)]2Mo2O5} [Example 23] | soluble |  | soluble |  |
| [(C12H25)3NH]4{(C4H9P)2Mo5O21} [Example 17] | readily soluble |  |  | soluble in hot hexane [1]: readily soluble; Hexane soluble ([2]; result in words): soluble |
| [(C12H25)3NH]4{(C6H5OP)2Mo5O21} [Example 12] |  | readily soluble | readily soluble | Hexane soluble ([2]; numeric bound): > 99% |
| [(C12H25)3NH]4{(C6H5P)2Mo5O21} [Example 1] |  |  |  | gel time [3]: 4.4 min |
| [(C12H25)3NH]4{(C6H5P)2Mo5O21} [Example 2] |  | readily soluble | readily soluble | Hexane soluble ([2]; numeric bound): > 99%; gel time [3]: 3.7 min |
| [(C12H25)3NH]4{(C6H5P)2Mo5O21} [Example 10] |  | readily soluble | readily soluble |  |
| [(C12H25)3NH]4{(C6H5P)2Mo5O21} [Example 19] |  | readily soluble | readily soluble |  |
| [(C12H25)3NH]4{(C6H5P)2Mo5O21} [Example 33] | soluble |  | soluble |  |
| [(C12H25)3NH]4{(C6H5P)2Mo5O21} [Example 35] | soluble |  | soluble |  |
| [(C12H25)3NH]4{(C6H5P)2W5O21} [Example 9] |  | soluble | soluble | Hexane soluble ([2]; numeric bound): > 99% |
| [(C12H25)3NH]4{(CH3)3CP)2Mo5O21} [Example 8] |  |  |  | soluble in cyclohexane/hexane mixture ([1]; cyclohexane/hexane mixture): soluble; Hexane soluble ([2]; result in words): soluble |
| [(C12H25)3NH]4{(CH3P)2Mo5O21} [Example 15] | soluble |  |  | soluble in hot hexane [1]: soluble; Hexane soluble ([2]; result in words): soluble |
| [(C12H25)3NH]4{(HOP)2Mo5O21} [Example 38] | soluble |  | soluble |  |
| [(C12H25)3NH]4{(HP)2Mo5O21} [Example 20] | soluble |  |  |  |
| [(C12H25)3NH]4{[(HOCH2)2CHOP)]2Mo5O21} [Example 13] |  | readily soluble | readily soluble | Hexane soluble ([2]; numeric bound): > 99% |
| [(C12H25)3NH]4{[C6H4(O)(COO)]2Mo4O12} [Example 26] | soluble |  | soluble |  |
| [(C12H25)3NH]4{[CH3CH(O)(COO)]2Mo4O12} [Example 22] | soluble |  | soluble |  |
| [(C18H37)0.65C16H33)0.35(C14H29)0.05NH]4{(C6H5P)2Mo5O21} [Example 7] | soluble | soluble | soluble | Hexane soluble ([2]; numeric bound): > 99% |
| [(i-C8H17)3NH]4{(C6H5P)2Mo5O21} [Example 4] | readily soluble |  |  | soluble in hot hexane [1]: readily soluble; Hexane soluble ([2]; numeric bound): < 5%; gel time [3]: 2.5 min |
| [(i-C10H21)3NH]4{(C6H5P)2Mo3O21} [Example 3] |  | readily soluble | readily soluble | Hexane soluble ([2]; numeric bound): > 99%; gel time [3]: 3.4 min |
| [C12H25NH]4{[HOC(O)CH2CH2P]2Mo5O21]} [Example 14] |  |  |  | Hexane soluble ([2]; result in words): soluble |
